For 13 molecules, IC50 and EC50 results are on record in patent US8288379B2, “Thia-triaza-cyclopentazulenes” (Boehringer Ingelheim International GmbH, priority 2009, dated 2012).

One assay has as its target T1, FRAP1 (mTOR) kinase (Homo sapiens, UniProt P42345).
T1 construct: purchased Invitrogen PV4753
Description: Inhibition of mTOR-induced p-4E-BP1 phosphorylation (TR-FRET mTOR Activity Kit; Invitrogen). The conditions noted are these: 400 nM GFP-4E-BP1 substrate, ~150 ng/mL mTOR, one hour at room temperature. It is filed as biochemical. Put shortly: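 LanthaScreen TR-FRET: mTOR with GFP-4E-BP1 substrate in HEPES pH 7.5 buffer with 10 mM MnCl2, compound preincubated 30 min at RT, then ATP added and reacted 1 h at 20-25 °C. Stopped with EDTA plus Tb-anti-p4E-BP1 (pThr46), 1 h; GFP/Tb emission ratio over a 16-point curve, sigmoidal fit for IC50.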

The subject of a further assay is PC-3 cells. Description: Inhibition of proliferation: CyQuant PC-3. The conditions noted are these: 72 h; PC-3 human prostate carcinoma cells, incubated with compounds for 3 days, CyQuant NF DNA dye. Type of assay: cell-based. The essentials:
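PC-3 proliferation read by CyQuant NF: DNA-binding dye with membrane permeabilization reagent added after medium removal, 30-60 min incubation, fluorescence at Ex 485/Em 530 nm. Proliferation judged from cell counts of drug-treated versus untreated controls.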

T1 sequence (P42345 1360-2549 limits assumed): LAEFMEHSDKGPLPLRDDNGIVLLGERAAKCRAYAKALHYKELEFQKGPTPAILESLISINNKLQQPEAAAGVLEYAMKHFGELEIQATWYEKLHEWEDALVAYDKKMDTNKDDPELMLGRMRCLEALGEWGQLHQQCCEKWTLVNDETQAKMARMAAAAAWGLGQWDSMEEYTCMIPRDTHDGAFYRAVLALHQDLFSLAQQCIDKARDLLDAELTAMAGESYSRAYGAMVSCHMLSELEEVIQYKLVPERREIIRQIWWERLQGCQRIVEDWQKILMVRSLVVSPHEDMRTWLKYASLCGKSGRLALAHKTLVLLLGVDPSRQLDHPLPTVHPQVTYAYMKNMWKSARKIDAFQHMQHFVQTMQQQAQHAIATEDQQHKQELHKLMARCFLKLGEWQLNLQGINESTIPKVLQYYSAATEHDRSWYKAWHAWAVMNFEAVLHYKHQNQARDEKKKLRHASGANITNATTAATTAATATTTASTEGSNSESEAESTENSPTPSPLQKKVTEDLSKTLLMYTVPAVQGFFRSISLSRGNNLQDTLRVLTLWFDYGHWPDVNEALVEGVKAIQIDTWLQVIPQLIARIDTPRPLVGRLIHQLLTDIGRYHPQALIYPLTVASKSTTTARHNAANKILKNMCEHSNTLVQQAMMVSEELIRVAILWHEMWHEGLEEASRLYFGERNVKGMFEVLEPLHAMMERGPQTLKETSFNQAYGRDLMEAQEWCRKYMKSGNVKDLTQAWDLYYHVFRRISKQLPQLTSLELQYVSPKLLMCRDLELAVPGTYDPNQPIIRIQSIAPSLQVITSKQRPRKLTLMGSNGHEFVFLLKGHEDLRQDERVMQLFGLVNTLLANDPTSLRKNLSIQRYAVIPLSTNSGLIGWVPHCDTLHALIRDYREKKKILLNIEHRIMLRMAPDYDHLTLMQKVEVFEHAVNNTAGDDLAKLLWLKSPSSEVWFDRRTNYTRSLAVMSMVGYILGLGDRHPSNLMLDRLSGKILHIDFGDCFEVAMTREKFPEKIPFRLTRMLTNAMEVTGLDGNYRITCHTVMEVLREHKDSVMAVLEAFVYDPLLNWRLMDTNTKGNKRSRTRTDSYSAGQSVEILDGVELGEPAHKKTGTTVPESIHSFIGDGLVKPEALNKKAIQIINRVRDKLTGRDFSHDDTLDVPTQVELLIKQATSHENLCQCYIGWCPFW

As a reminder, the IC50 is the midpoint of a concentration-inhibition curve. Read a low IC50 as higher potency. As usually defined, the EC50 is the concentration giving half of the maximal effect. `CCNc1ccc(-c2nn(-c3cccc(OC)c3)c3c2CCCc2nc(NC(C)=O)sc2-3)cn1` [Example B-128] displayed a 50% inhibitory concentration (IC50) against FRAP1 (mTOR) kinase of 0.108 µM. Further, the half-maximal effective concentration (EC50) in the assay with PC-3 cells stood at 0.119 µM.

Molecule `COCCC(=O)Nc1nc2c(s1)-c1c(c(-c3ccc(N)nc3)nn1C(C)C)CCC2` [Example B-133, N-[3-(6-Amino-pyridin-3-yl)-1-isopropyl-1,4,5,6-tetrahydro-9-thia-1,2,7-triaza-cyclopenta[e]azulen-8-yl]-3-methoxy-propionamide] returned an IC50 against FRAP1 (mTOR) kinase of 0.065 µM. Moreover, the half-maximal effective concentration (EC50) with PC-3 cells is 0.152 µM.

As for `CCc1ccccc1-n1nc(-c2c[nH]cn2)c2c1-c1sc(NC(C)=O)nc1CCC2` [Example B-118, N-[1-(2-Ethyl-phenyl)-3-(1H-imidazol-4-yl)-1,4,5,6-tetrahydro-9-thia-1,2,7-triaza-cyclopenta[e]azulen-8-yl]-acetamide], at FRAP1 (mTOR) kinase, inhibition was half-maximal at 0.017 µM (IC50). In addition, in the assay on PC-3 cells, the 50% effective concentration (EC50) was found to be 0.055 µM.

At FRAP1 (mTOR) kinase, `CCNc1ccc(-c2nn(-c3ccccc3C)c3c2CCCc2nc(NC(=O)CNC)sc2-3)cn1` [Example B-69] came in with an IC50 of 0.145 µM. In addition, the EC50 in the assay on PC-3 cells turned out to be 0.229 µM.

Take `CC(=O)Nc1nc2c(s1)-c1c(c(-c3c[nH]cn3)nn1CC(C)C)CCC2` [Example B-113]: the IC50 at FRAP1 (mTOR) kinase is 0.009 µM. In addition, the EC50 in the assay with PC-3 cells turned out to be 0.029 µM.

The molecule `CNC(=O)Nc1nc2c(s1)-c1c(c(-c3ccc(NC)nc3)nn1-c1cccnc1C)CCC2` [Example B-143, 1-Methyl-3-[3-(6-methylamino-pyridin-3-yl)-1-(2-methyl-pyridin-3-yl)-1,4,5,6-tetrahydro-9-thia-1,2,7-triaza-cyclopent[e]azulen-8-yl]-urea] displayed an IC50 against FRAP1 (mTOR) kinase of 0.071 µM. For the same molecule, the EC50 in the assay with PC-3 cells came out at 0.424 µM.

In the case of `CC(=O)Nc1nc2c(s1)-c1c(c(-c3ccc(N)nc3)nn1C1CCCOC1)CCC2` (centres unmarked) [Example B-65, N-[3-(6-Amino-pyridin-3-yl)-1-(tetrahydro-pyran-3-yl)-1,4,5,6-tetrahydro-9-thia-1,2,7-triaza-cyclopenta[e]azulen-8-yl]-acetamide], on FRAP1 (mTOR) kinase, the IC50 was 0.013 µM. Further, the concentration for a half-maximal effect (EC50) in the assay on PC-3 cells was 0.075 µM.

Molecule `CC(=O)Nc1nc2c(s1)-c1c(c(-c3ccc(C)nc3)nn1C1CCN(C3CC3)CC1)CCC2` [Example B-12, N-[1-(1-Cyclopropyl-piperidin-4-yl)-3-(6-methyl-pyridin-3-yl)-1,4,5,6-tetrahydro-9-thia-1,2,7-triaza-cyclopent[e]azulen-8-yl]acetamide] came in with an IC50 on FRAP1 (mTOR) kinase of 0.031 µM. Further, the EC50 in the assay with PC-3 cells was determined as 0.127 µM.

With `Cc1ccccc1-n1nc(-c2ccc(N)nc2)c2c1-c1sc(NC(=O)N(C)C)nc1CCC2` [Example B-55], half-maximal inhibition against FRAP1 (mTOR) kinase (IC50) was put at 0.17 µM. Moreover, the EC50 with PC-3 cells amounted to 0.45 µM.

As for `CCNc1ccc(-c2nn(CCOC)c3c2CCCc2nc(NC(C)=O)sc2-3)cn1` [Example B-125], the midpoint of inhibition on FRAP1 (mTOR) kinase, the IC50, lay at 0.114 µM. For the same molecule, in the assay on PC-3 cells, the EC50 turned out to be 0.253 µM.

`CN(C)C(=O)Nc1nc2c(s1)-c1c(c(-c3ccc(N)nc3)nn1-c1ccccc1)CCC2` [Example B-96, 3-[3-(6-Amino-pyridin-3-yl)-1-phenyl-1,4,5,6-tetrahydro-9-thia-1,2,7-triaza-cyclopenta[e]azulen-8-yl]-1,1-dimethyl-urea] had an IC50 against FRAP1 (mTOR) kinase of 0.067 µM. The concentration for a half-maximal effect (EC50) in the assay on PC-3 cells worked out at 0.289 µM.

Consider `CNc1ccc(-c2nn(-c3ccccc3C)c3c2CCCc2nc(NC(C)=O)sc2-3)cn1` [Example B-06, N-[3-(6-Methylamino-pyridin-3-yl)-1-o-tolyl-1,4,5,6-tetrahydro-9-thia-1,2,7-triaza-cyclopenta[e]azulen-8-yl]-acetamide], for which it took 0.036 µM to reach half-maximal inhibition against FRAP1 (mTOR) kinase (IC50). The EC50 in the assay with PC-3 cells amounted to 0.066 µM.

Turning to `C=CCn1nc(-c2ccc(N)nc2)c2c1-c1sc(NC(=O)N(C)C)nc1CCC2` [Example B-52], half-maximal inhibition on FRAP1 (mTOR) kinase (IC50) required 0.146 µM. Further, the EC50 in the assay with PC-3 cells amounted to 0.326 µM.
